Patent US11053204B2, “Pyrimidinyloxy benzene derivatives as herbicides” (FMC Corporation, priority 2015, dated 2021)

How the values were obtained:
Format in all cases: in vivo
[1] = system: Italian ryegrass (Lolium multiflorum); experiment: Test A preemergence, visual injury rating
Outline: (§1)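 Greenhouse pot test, loam/sand soil. Formulation: non-phytotoxic solvent mix plus surfactant. Pre: directed spray onto soil after sowing. Post: plants at 1–2 leaf, 2–10 cm. Rated visually vs untreated controls at ~10 d, 0 (no effect) to 100 (complete control).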

[2] = system: barnyardgrass (Echinochloa crus-galli); experiment: Test A preemergence, visual injury rating
Outline: as §1

[3] = system: giant foxtail (Setaria faberii); experiment: Test A preemergence, visual injury rating
Outline: as §1

kochia (Kochia scoparia) [4] = experiment: Test A preemergence, visual injury rating
Outline: as §1

[5] = system: pigweed (Amaranthus retroflexus); experiment: Test A preemergence, visual injury rating
Outline: as §1

[6] = system: ragweed (common ragweed, Ambrosia elatior); experiment: Test A preemergence, visual injury rating
Outline: as §1

[7] = system: Italian ryegrass (Lolium multiflorum); experiment: Test A postemergence, visual injury rating; settings: 0 to 100 scale, 0 is no effect, 100 is complete control, approximately 10 days
Outline: as §1

[8] = system: barnyardgrass (Echinochloa crus-galli); experiment: Test A postemergence, visual injury rating; settings: 0 to 100 scale, 0 is no effect, 100 is complete control, approximately 10 days
Outline: as §1

[9] = system: blackgrass (Alopecurus myosuroides); experiment: Test A postemergence, visual injury rating; settings: 0 to 100 scale, 0 is no effect, 100 is complete control, approximately 10 days
Outline: as §1

corn (Zea mays) = experiment: Test A postemergence, visual injury rating; settings: 0 to 100 scale, 0 is no effect, 100 is complete control, approximately 10 days
Outline: as §1

[10] = system: galium (catchweed bedstraw, Galium aparine); experiment: Test A postemergence, visual injury rating; settings: 0 to 100 scale, 0 is no effect, 100 is complete control, approximately 10 days
Outline: as §1

[11] = system: giant foxtail (Setaria faberii); experiment: Test A postemergence, visual injury rating; settings: 0 to 100 scale, 0 is no effect, 100 is complete control, approximately 10 days
Outline: as §1

kochia (Kochia scoparia) [12] = experiment: Test A postemergence, visual injury rating; settings: 0 to 100 scale, 0 is no effect, 100 is complete control, approximately 10 days
Outline: as §1

[13] = system: pigweed (Amaranthus retroflexus); experiment: Test A postemergence, visual injury rating; settings: 0 to 100 scale, 0 is no effect, 100 is complete control, approximately 10 days
Outline: as §1

[14] = system: ragweed (common ragweed, Ambrosia elatior); experiment: Test A postemergence, visual injury rating; settings: 0 to 100 scale, 0 is no effect, 100 is complete control, approximately 10 days
Outline: as §1

[15] = system: wheat (Triticum aestivum); experiment: Test A postemergence, visual injury rating; settings: 0 to 100 scale, 0 is no effect, 100 is complete control, approximately 10 days
Outline: as §1

[16] = system: barnyardgrass (Echinochloa crus-galli); experiment: Test B flooded paddy test, plant response rating; settings: 250 g ai/ha; Flood; scale of 0 to 100 where 0 is no effect and 100 is complete control; 13 to 15 days
Outline: (§2)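 Visual injury ratings against untreated controls, taken 13 to 15 days after compound was added to paddy water standing 3 cm above the soil.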

[17] = system: ducksalad (Heteranthera limosa); experiment: Test B flooded paddy test, plant response rating; settings: 250 g ai/ha; Flood; scale of 0 to 100 where 0 is no effect and 100 is complete control; 13 to 15 days
Outline: as §2

rice (Oryza sativa) = experiment: Test B flooded paddy test, plant response rating; settings: 250 g ai/ha; Flood; scale of 0 to 100 where 0 is no effect and 100 is complete control; 13 to 15 days
Outline: as §2

[18] = system: sedge, umbrella (small-flower umbrella sedge, Cyperus difformis); experiment: Test B flooded paddy test, plant response rating; settings: 250 g ai/ha; Flood; scale of 0 to 100 where 0 is no effect and 100 is complete control; 13 to 15 days
Outline: as §2

[19] = 31 g ai/ha, 0 to 100 scale, 0 no effect, 100 complete control
[20] = 125 g ai/ha, 0 to 100 scale (0 no effect, 100 complete control)

Row | Structure (SMILES) | Plant response rating, Ryegrass, Italian [1, 19] | Plant response rating, Ryegrass, Italian [1, 20] | Plant response rating, Barnyardgrass [2, 19] | Plant response rating, Barnyardgrass [2, 20] | Plant response rating, Foxtail, Giant [3, 19] | Plant response rating, Foxtail, Giant [3, 20] | Plant response rating, Kochia (kochia (Kochia scoparia) [4]; [19]) | Plant response rating, Kochia (kochia (Kochia scoparia) [4]; [20]) | Plant response rating, Pigweed [5, 19] | Plant response rating, Pigweed [5, 20] | Plant response rating, Ragweed [6, 19] | Plant response rating, Ragweed [6, 20] | Ryegrass, Italian plant response rating ([7]; 31 g ai/ha) | Ryegrass, Italian plant response rating ([7]; 125 g ai/ha) | Barnyardgrass plant response rating ([8]; 31 g ai/ha) | Barnyardgrass plant response rating ([8]; 125 g ai/ha) | Blackgrass plant response rating ([9]; 31 g ai/ha) | Blackgrass plant response rating ([9]; 125 g ai/ha) | Corn plant response rating (corn (Zea mays); 31 g ai/ha) | Corn plant response rating (corn (Zea mays); 125 g ai/ha) | other results
1 | CCCC(C#N)c1c(Br)cccc1Oc1ncc(Cl)cn1 (stereo not drawn) [Compound 118] | 0 | 0 | 0 | 0 | 0 | 20 | 0 | 0 | 20 | 50 | 100 | 50 | 0 | 0 | 0 | 10 | 0 | 0 | 0 | 10 | Galium plant response rating ([10]; 31 g ai/ha): 10; Galium plant response rating ([10]; 125 g ai/ha): 30; Foxtail, Giant plant response rating ([11]; 31 g ai/ha): 0; Foxtail, Giant plant response rating ([11]; 125 g ai/ha): 10; Kochia plant response rating (kochia (Kochia scoparia) [12]; 31 g ai/ha): 30; Kochia plant response rating (kochia (Kochia scoparia) [12]; 125 g ai/ha): 60; Pigweed plant response rating ([13]; 31 g ai/ha): 40; Pigweed plant response rating ([13]; 125 g ai/ha): 60; Ragweed plant response rating ([14]; 31 g ai/ha): 0; Ragweed plant response rating ([14]; 125 g ai/ha): 10; Wheat plant response rating ([15]; 31 g ai/ha): 0; Wheat plant response rating ([15]; 125 g ai/ha): 0; Plant response rating, Barnyardgrass [16]: 0; Plant response rating, Ducksalad [17]: 0; Plant response rating, Rice (rice (Oryza sativa)): 0; Plant response rating, Sedge, Umbrella [18]: 50
2 | FC(F)(F)CCCCCc1c(Br)cccc1Oc1ncc(Cl)cn1 [Compound 121] | 10 | 0 | 0 | 30 | 30 | 100 | 20 | 0 | 0 | 0 | 0 | 0 | 10 | 20 | 20 | 40 | 20 | 30 | 10 | 10 | Galium plant response rating ([10]; 31 g ai/ha): 70; Galium plant response rating ([10]; 125 g ai/ha): 80; Foxtail, Giant plant response rating ([11]; 31 g ai/ha): 10; Foxtail, Giant plant response rating ([11]; 125 g ai/ha): 70; Kochia plant response rating (kochia (Kochia scoparia) [12]; 31 g ai/ha): 20; Kochia plant response rating (kochia (Kochia scoparia) [12]; 125 g ai/ha): 80; Pigweed plant response rating ([13]; 31 g ai/ha): 80; Pigweed plant response rating ([13]; 125 g ai/ha): 100; Ragweed plant response rating ([14]; 31 g ai/ha): 20; Ragweed plant response rating ([14]; 125 g ai/ha): 50; Wheat plant response rating ([15]; 31 g ai/ha): 10; Wheat plant response rating ([15]; 125 g ai/ha): 10; Plant response rating, Barnyardgrass [16]: 50; Plant response rating, Ducksalad [17]: 0; Plant response rating, Rice (rice (Oryza sativa)): 35; Plant response rating, Sedge, Umbrella [18]: 70
3 | FC(F)(F)CCCc1c(Cl)cccc1Oc1ncc(Cl)cn1 [Compound 122] | 0 | 30 | 30 | 90 | 0 | 40 | 10 | 70 | 40 | 90 | 0 | 0 | 0 | 20 | 10 | 50 | 20 | 60 | 10 | 20 | Galium plant response rating ([10]; 31 g ai/ha): 30; Galium plant response rating ([10]; 125 g ai/ha): 60; Foxtail, Giant plant response rating ([11]; 31 g ai/ha): 10; Foxtail, Giant plant response rating ([11]; 125 g ai/ha): 40; Kochia plant response rating (kochia (Kochia scoparia) [12]; 31 g ai/ha): 80; Kochia plant response rating (kochia (Kochia scoparia) [12]; 125 g ai/ha): 80; Pigweed plant response rating ([13]; 31 g ai/ha): 70; Pigweed plant response rating ([13]; 125 g ai/ha): 100; Ragweed plant response rating ([14]; 31 g ai/ha): 0; Ragweed plant response rating ([14]; 125 g ai/ha): 10; Wheat plant response rating ([15]; 31 g ai/ha): 0; Wheat plant response rating ([15]; 125 g ai/ha): 0; Plant response rating, Barnyardgrass [16]: 80; Plant response rating, Ducksalad [17]: 100; Plant response rating, Rice (rice (Oryza sativa)): 40; Plant response rating, Sedge, Umbrella [18]: 100
4 | O=C(OCCC1CC1)c1c(Br)cccc1Oc1ncc(Cl)cn1 [Compound 123] | 0 | 20 | 20 | 70 | 40 | 100 | 0 | 10 | 0 | 80 | 0 | 0 | 0 | 20 | 10 | 50 | 10 | 50 | 10 | 10 | Galium plant response rating ([10]; 31 g ai/ha): 90; Galium plant response rating ([10]; 125 g ai/ha): 100; Foxtail, Giant plant response rating ([11]; 31 g ai/ha): 20; Foxtail, Giant plant response rating ([11]; 125 g ai/ha): 50; Kochia plant response rating (kochia (Kochia scoparia) [12]; 31 g ai/ha): 50; Kochia plant response rating (kochia (Kochia scoparia) [12]; 125 g ai/ha): 90; Pigweed plant response rating ([13]; 31 g ai/ha): 70; Pigweed plant response rating ([13]; 125 g ai/ha): 100; Ragweed plant response rating ([14]; 31 g ai/ha): 0; Ragweed plant response rating ([14]; 125 g ai/ha): 10; Wheat plant response rating ([15]; 31 g ai/ha): 0; Wheat plant response rating ([15]; 125 g ai/ha): 0; Plant response rating, Barnyardgrass [16]: 40; Plant response rating, Ducksalad [17]: 95; Plant response rating, Rice (rice (Oryza sativa)): 35; Plant response rating, Sedge, Umbrella [18]: 95
5 | FC(F)(F)CCCCCc1c(Cl)cccc1Oc1ncc(Cl)cn1 [Compound 124] | 0 | 20 | 10 | 80 | 60 | 100 | 0 | 10 | 40 | 100 | 0 | 0 | 0 | 20 | 10 | 60 | 20 | 60 | 10 | 20 | Galium plant response rating ([10]; 31 g ai/ha): 70; Galium plant response rating ([10]; 125 g ai/ha): 90; Foxtail, Giant plant response rating ([11]; 31 g ai/ha): 30; Foxtail, Giant plant response rating ([11]; 125 g ai/ha): 70; Kochia plant response rating (kochia (Kochia scoparia) [12]; 31 g ai/ha): 50; Kochia plant response rating (kochia (Kochia scoparia) [12]; 125 g ai/ha): 80; Pigweed plant response rating ([13]; 31 g ai/ha): 70; Pigweed plant response rating ([13]; 125 g ai/ha): 100; Ragweed plant response rating ([14]; 31 g ai/ha): 10; Ragweed plant response rating ([14]; 125 g ai/ha): 20; Wheat plant response rating ([15]; 31 g ai/ha): 10; Wheat plant response rating ([15]; 125 g ai/ha): 10; Plant response rating, Barnyardgrass [16]: 45; Plant response rating, Ducksalad [17]: 100; Plant response rating, Rice (rice (Oryza sativa)): 40; Plant response rating, Sedge, Umbrella [18]: 100
